# Like-named read-outs stand apart in the source and are kept apart here.
# Tests used:
# [1] = X-ray powder diffraction (XRPD) of salt screen and scale-up products; format: physicochemical; settings: salt screen
# Description: The Rigaku Smart-Lab X-ray diffraction system was configured for reflection Bragg-Brentano geometry using a line source X-ray beam. The x-ray source is a Cu Long Fine Focus tube that was operated at 40 kV and 44 ma. That source provides an incident beam profile at the sample that changes from a narrow line at high angles to a broad rectangle at low angles. Beam conditioning slits are used on the line X-ray source to ensure that the maximum beam size is less than 10 mm both along the line and normal to the line. The Bragg-Brentano geometry is a para-focusing geometry controlled by passive divergence and receiving slits with the sample itself acting as the focusing component for the optics. The inherent resolution of Bragg-Brentano geometry is governed in part by the diffractometer radius and the width of the receiving slit used. Typically, the Rigaku Smart-Lab is operated to give peak widths of 0.1° 2θ or less. The axial divergence of the X-ray beam is controlled by 5.0-degree Soller slits in both the incident and diffracted beam paths.
# Powder samples were prepared in a low background Si holder using light manual pressure to keep the sample surfaces flat and level with the reference surface of the sample holder. Each sample was analyzed from 2 to 40° 2θ using a continuous scan of 6° 2θ per minute with an effective step size of 0.02° 2θ.
# [2] = test system: absence seizures; settings: childhood absence epilepsy, cited from earlier work
# [3] = at 16 weeks, as assessed by video-EEG recordings
molecule,measurement,setting,value
Alginate,XRPD Pattern,"[1]; Grind, IPA",API A
O=CO [Formate],XRPD Pattern,"[1]; E (evaporation), EtOH",API A (PO)
same,XRPD Pattern,"[1]; Grind, ACN",API A
Gentisate,XRPD Pattern,"[1]; Grind, BuOAc",API A + NC
Pyroglutamate,XRPD Pattern,"[1]; Grind, MEK",API A + pks
Tartrate,XRPD Pattern,"[1]; Grind, IPA",API A + acid + NC
Glucuronate,XRPD Pattern,"[1]; Grind, acetone",API A + pks
same,XRPD Pattern,"[1]; LY, dioxane/water",API A + NC
Caprate,XRPD Pattern,"[1]; E (evaporation), EtOH",API A (PO)
same,XRPD Pattern,"[1]; Grind, ACN",API A + pks
Benzoate,XRPD Pattern,"[1]; E (evaporation), EtOH",API A + NC
same,XRPD Pattern,"[1]; Grind, ACN",API A + NC
same,XRPD Pattern,"[1]; SL, IPE, RT",API A
Palmitate,XRPD Pattern,"[1]; E, MeOH",API A + acid
same,XRPD Pattern,"[1]; Grind, ACN",API A + acid
Propionate,XRPD Pattern,"[1]; E, MeOH",API A
same,XRPD Pattern,"[1]; Grind, ACN",API A
CCC1(C)CC(=O)NC1=O (stereo not shown) [ethosuximide],patients in whom the seizures were completely controlled,[2]; at 12 months,45%
same,patients in whom the seizures were completely controlled,[2]; [3],53%
CC(=O)O [Acetate],XRPD Pattern,"[1]; E (evaporation), EtOH",API A (PO)
same,XRPD Pattern,"[1]; Grind, ACN",API A
Caprylate,XRPD Pattern,"[1]; E (evaporation), EtOH",API A (PO)
same,XRPD Pattern,"[1]; Grind, ACN",API A
Oleate,XRPD Pattern,"[1]; E, MeOH",API A (PO)
same,XRPD Pattern,"[1]; Grind, ACN",API A + NC
Ascorbate,XRPD Pattern,"[1]; E (evaporation), EtOH",API A (PO)
same,XRPD Pattern,"[1]; Grind, ACN",API A + acid
Stearate,XRPD Pattern,"[1]; E, MeOH",API A + acid
same,XRPD Pattern,"[1]; Grind, ACN",API A + acid
O=S(=O)(O)CCO [Isethionate],XRPD Pattern,"[1]; Grind, ACN",API A + NC
N[C@@H](CCC(=O)O)C(=O)O [Glutamate],XRPD Pattern,"[1]; Grind, ACN/water (9:1)",API A + acid
same,XRPD Pattern,"[1]; SL, ACN, 50° C.",API A + acid
O=C(O)CCC(=O)C(=O)O [Ketoglutarate],XRPD Pattern,"[1]; E, MeOH/ACN (1:1)",NC + pks
same,XRPD Pattern,"[1]; Grind, ACN",API A + NC
Hippurate,XRPD Pattern,"[1]; E (evaporation), EtOH",API A + NC
same,XRPD Pattern,"[1]; Grind, IPA",API A + acid
Gluconate,XRPD Pattern,"[1]; E, MeOH/toluene (1:1), RT",API A
same,XRPD Pattern,"[1]; Grind, ACN",API A
same,XRPD Pattern,"[1]; LY, dioxane/water",API A + NC
CC(C)C(=O)O [Isobutyrate],XRPD Pattern,"[1]; E, MeOH",API A
same,XRPD Pattern,"[1]; Grind, ACN",API A
Nc1nnc(-c2cccc(Cl)c2Cl)c(N)n1 [Lamotrigine],patients in whom the seizures were completely controlled,[2]; at 12 months,21%
same,patients in whom the seizures were completely controlled,[2]; [3],29%
Citrate,XRPD Pattern,"[1]; Grind, EtOAc",API A + acid + NC
Laurate,XRPD Pattern,"[1]; E, MeOH",API A + acid + pks
same,XRPD Pattern,"[1]; Grind, ACN",API A + acid + pks
Malate,XRPD Pattern,"[1]; Grind, IPA",API A + NC
Camphorate,XRPD Pattern,"[1]; E (evaporation), EtOH",API A (PO)
same,XRPD Pattern,"[1]; Grind, ACN",API A + acid

# From patent US20260092037A1, “CRYSTALLINE SALT FORMS OF N-((1-(2-(TERT-BUTYLAMINO)-2-OXOETHYL)PIPERIDIN-4-YL) METHYL)-3-CHLORO-5-FLUOROBENZAMIDE AND METHODS OF USE THEREOF” (priority 2023, published 2026)
